This note sets out measurements from patent US8367873B2, “Phenyl-substituted bicyclooctane-1,3-dione derivatives” (Bayer Cropscience AG, priority 2008, dated 2013).

Holding throughout (type): in vivo
Assay [1] concerns Alopecurus myosuroides. The experiment in a line: Herbicidal post-emergence action. The conditions noted are these: post-emergence method, 80 g/ha. The method in brief:
(§1)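 One-leaf-stage greenhouse plants sprayed with WP at graded amounts (600 l/ha, 0.2% wetting agent); ~3 wk later, visual % effect rated vs untreated controls, 100% = dead, 0% = like control.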

The subject of assay [2] is Echinocloa crus-galli. The experiment in a line: Herbicidal post-emergence action. The following applies: post-emergence method, 80 g/ha. The method in brief: as §1
The subject of assay [3] is Lolium multiflorum. The experiment in a line: Herbicidal post-emergence action. The following applies: post-emergence method, 80 g/ha. The method in brief: as §1
Assay [4] has as its system Setaria viridis. The experiment in a line: Herbicidal post-emergence action. The conditions noted are these: post-emergence method, 80 g/ha. The method in brief: as §1
Assay [5] deals with monocotylidonous and dicotylidonous weed and crop plants. The experiment in a line: Herbicidal post-emergence action (other test plants). The following applies: post-emergence method, 80 g/ha. The method in brief:
as §1

Assay [6] shares this test system. The experiment in a line: Herbicidal pre-emergence action (other test plants). The conditions noted are these: pre-emergence method, 80 g/ha, greenhouse, visual assessment vs untreated controls. The method in brief:
(§2)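 Visual percent damage score (100% = dead plants, 0% = as untreated control) taken three weeks after pre-emergence treatment. Compounds were wettable powders sprayed onto covering soil over seeds in sandy loam, 600 l/ha water with 0.2% wetting agent, several application amounts; pots kept in greenhouse.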

In assay [7] the test system is Alopecurus myosuroides. The experiment in a line: Herbicidal pre-emergence action. The conditions noted are these: pre-emergence method, 80 g/ha, greenhouse, visual assessment vs untreated controls. The method in brief: as §2
For assay [8], the system named is Echinocloa crus-galli. The experiment in a line: Herbicidal pre-emergence action. The conditions noted are these: pre-emergence method, 80 g/ha, greenhouse, visual assessment vs untreated controls. The method in brief:
as §2

The subject of assay [9] is Lolium multiflorum. The experiment in a line: Herbicidal pre-emergence action. The following applies: pre-emergence method, 80 g/ha, greenhouse, visual assessment vs untreated controls. The method in brief:
as §2

Assay [10] relates to Setaria viridis. The experiment in a line: Herbicidal pre-emergence action. The following applies: pre-emergence method, 80 g/ha, greenhouse, visual assessment vs untreated controls. The method in brief: as §2

As to `CCc1cc(C)cc(CC)c1C1=C(OC(=O)C(C)C)C2CC3(COC(C)(C)O3)CC2C1=O` (stereo not drawn) [I-b-7], the “herbicidal effect against ALOMY (Alopecurus myosuroides)” value (from here on “herbicidal effect against ALOMY”) with Alopecurus myosuroides [1] is on record as 90%. The “herbicidal effect against ECHCG (Echinochloa crus-galli)” value (“herbicidal effect against ECHCG” below) in the assay on Echinocloa crus-galli [2] was 100%. Further, the “herbicidal effect against LOLMU (Lolium multiflorum)” value (shortened to “herbicidal effect against LOLMU”) in the assay with Lolium multiflorum [3] was found to be 100%. Also, in the assay on Setaria viridis [4], the “herbicidal effect against SETVI (Setaria viridis)” value (“herbicidal effect against SETVI” for short) is given as 90%. Also, in assay [5], the “herbicidal effect against AVEFA (Avena fatua)” value (shortened to “herbicidal effect against AVEFA”) amounted to 100%. Moreover, the “herbicidal effect AVEFA” value in assay [6] is given as 80%. In addition, in the assay on Alopecurus myosuroides [7], the “herbicidal effect ALOMY” value worked out at 100%. In addition, the “herbicidal effect ECHCG” value with Echinocloa crus-galli [8] was 60%. Further, in the assay on Lolium multiflorum [9], the “herbicidal effect LOLMU” value is recorded as 100%. For the same molecule, the “herbicidal effect SETVI” value with Setaria viridis [10] worked out at 70%.

Regarding `COc1cc(C)cc(C)c1C1=C([O-])C2CC3(CC2C1=O)OCC=CCO3.[Na+]` (stereo not drawn) [I-f-7], in the assay with Alopecurus myosuroides [1], the “herbicidal effect against ALOMY” value was 100%. Moreover, the “herbicidal effect against ECHCG” value in the assay on Echinocloa crus-galli [2] is 100%. Besides, the “herbicidal effect against LOLMU” value in the assay with Lolium multiflorum [3] is 100%. Besides, in the assay with Setaria viridis [4], the “herbicidal effect against SETVI” value worked out at 100%. Moreover, the “herbicidal effect against AVEFA” value in assay [5] worked out at 100%. Besides, in assay [6], the “herbicidal effect AVEFA” value is given as 70%. Besides, the “herbicidal effect ALOMY” value in the assay on Alopecurus myosuroides [7] worked out at 100%. The “herbicidal effect ECHCG” value in the assay on Echinocloa crus-galli [8] was found to be 80%. Moreover, in the assay on Lolium multiflorum [9], the “herbicidal effect LOLMU” value was determined as 100%. For the same molecule, in the assay with Setaria viridis [10], the “herbicidal effect SETVI” value is given as 90%.

On to `CCC(=O)OC1=C(c2c(CC)cc(C)cc2CC)C(=O)C2CC3(COC(C)(C)O3)CC12` (stereo not drawn) [I-b-2], for which, in the assay on Alopecurus myosuroides [1], the “herbicidal effect against ALOMY” value is given as 100%. Moreover, the “herbicidal effect against ECHCG” value with Echinocloa crus-galli [2] was determined as 90%. Moreover, in the assay with Lolium multiflorum [3], the “herbicidal effect against LOLMU” value turned out to be 100%. Further, in the assay with Setaria viridis [4], the “herbicidal effect against SETVI” value is given as 80%. Further, in assay [5], the “herbicidal effect against AVEFA” value turned out to be 60%. Besides, the “herbicidal effect AVEFA” value in assay [6] is on record as 50%. Also, the “herbicidal effect ALOMY” value in the assay with Alopecurus myosuroides [7] came out at 90%. Further, the “herbicidal effect ECHCG” value in the assay with Echinocloa crus-galli [8] was 30%. Besides, the “herbicidal effect LOLMU” value in the assay with Lolium multiflorum [9] is on record as 100%. Besides, in the assay with Setaria viridis [10], the “herbicidal effect SETVI” value worked out at 40%.

For `CCc1cc(C)cc(CC)c1C1=C(OC(=O)COC)C2CC3(CC2C1=O)OCCCO3` (stereo not drawn) [I-b-28], the “herbicidal effect against ALOMY” value with Alopecurus myosuroides [1] is on record as 100%. The “herbicidal effect against ECHCG” value in the assay with Echinocloa crus-galli [2] is 100%. Also, the “herbicidal effect against LOLMU” value with Lolium multiflorum [3] is listed as 100%. For the same molecule, in the assay on Setaria viridis [4], the “herbicidal effect against SETVI” value is reported as 100%. Besides, in assay [5], the “herbicidal effect against AVEFA” value was determined as 100%. Besides, in assay [6], the “herbicidal effect AVEFA” value was 50%. The “herbicidal effect ALOMY” value with Alopecurus myosuroides [7] was 90%. The “herbicidal effect ECHCG” value in the assay on Echinocloa crus-galli [8] amounted to 100%. For the same molecule, the “herbicidal effect LOLMU” value in the assay on Lolium multiflorum [9] turned out to be 100%. Also, the “herbicidal effect SETVI” value in the assay with Setaria viridis [10] was 70%.

For the molecule `CCOC1COC2(C[C@@H]3C(O)=C(c4c(CC)cc(C)cc4CC)C(=O)[C@@H]3C2)OC1` (relative stereo) [I-a-28], in the assay on Alopecurus myosuroides [1], the “herbicidal effect against ALOMY” value is 100%. Besides, the “herbicidal effect against ECHCG” value with Echinocloa crus-galli [2] is given as 100%. Further, in the assay on Lolium multiflorum [3], the “herbicidal effect against LOLMU” value is 100%. Also, the “herbicidal effect against SETVI” value in the assay on Setaria viridis [4] is given as 100%. The “herbicidal effect against AVEFA” value in assay [5] is reported as 100%. Further, the “herbicidal effect AVEFA” value in assay [6] is on record as 80%. Further, the “herbicidal effect ALOMY” value in the assay on Alopecurus myosuroides [7] came to 100%. The “herbicidal effect ECHCG” value in the assay on Echinocloa crus-galli [8] amounted to 100%. Besides, in the assay on Lolium multiflorum [9], the “herbicidal effect LOLMU” value stood at 100%. Further, in the assay with Setaria viridis [10], the “herbicidal effect SETVI” value was 90%.

Turning to `CCOC(=O)OC1=C(c2c(CC)cc(C)cc2CC)C(=O)C2CC3(CC12)OCCCS3` (mixture of isomers) [I-c-19], in the assay on Alopecurus myosuroides [1], the “herbicidal effect against ALOMY” value stood at 100%. Besides, in the assay with Echinocloa crus-galli [2], the “herbicidal effect against ECHCG” value is 100%. The “herbicidal effect against LOLMU” value in the assay with Lolium multiflorum [3] amounted to 100%. Also, the “herbicidal effect against SETVI” value in the assay with Setaria viridis [4] was found to be 100%. Also, the “herbicidal effect against AVEFA” value in assay [5] is listed as 100%. Besides, the “herbicidal effect AVEFA” value in [6] was 70%. Also, the “herbicidal effect ALOMY” value with Alopecurus myosuroides [7] stood at 100%. Besides, the “herbicidal effect ECHCG” value with Echinocloa crus-galli [8] came out at 50%. Moreover, the “herbicidal effect LOLMU” value with Lolium multiflorum [9] was 90%. The “herbicidal effect SETVI” value in the assay with Setaria viridis [10] is on record as 90%.
